Data published in patent publication US20110275679A1, “FLUPIRTINE HYDROCHLORIDE MALEIC ACID COCRYSTAL” (Bionevia Pharmaceuticals, Inc., priority 2008, published 2011).
Counter-ions that a name gives are not always drawn.

Tests used:
[1] = cited from earlier work
[2] = Intrinsic dissolution in water at 37° C. (Woods apparatus pellet, UV absorbance at 343 nm); assay type: physicochemical
Description: Intrinsic Dissolution: Pellets of approximately 200 mg were pressed at 3000 lbs. for 1 minute in a standard Woods apparatus, with a surface area of 0.5 cm^2. One pellet was tested for each material. The samples were rotated in a VanKel dissolution apparatus, with automated sampling, at 100 RPM in 900 mL of water at 37° C. Aliquots were taken every two minutes and not filtered prior to analysis. […] A wavelength of approximately 343 nm was chosen for the cocrystal to avoid potential interference from maleic acid. To determine the rate of dissolution of each material, a plot was generated of the absorbance over time for each material. From this plot, a linear region was chosen from the initial dissolution period of each material. Concentrations were plotted versus time for the regions. A straight-line was fit to the data for each material. The slope of these lines provides the dissolution rate for each of the materials, expressed as [μg/mL]/min. The rates were not normalized for the surface area of the pellet. Aliquots of the dissolution medium were removed manually at the end of the run and analyzed by UV spectrophotometry, and the remainder of the pellets were recovered for XRPD analysis. FIG. 2-3 depicts the UV absorbance (at 343 nm) vs. time curves for the intrinsic dissolution experiment on flupirtine maleate in water at 37° C. […] Intrinsic dissolution experiments were performed under sink conditions in water at 37° C. […] The intrinsic dissolution rate of the 1:1 flupirtine hydrochloride maleic acid cocrystal was ˜0.21 μg/mL/min. There appeared to be a slow chemical change occurring in the dissolution medium. The solid recovered from the intrinsic dissolution experiment was analyzed by XRPD and determined to correspond to a mixture of the flupirtine hydrochloride maleic acid cocrystal and a small amount of an unidentified material.

[3] = in man; cited from earlier work
[4] = water, 37° C., 100 RPM, 900 mL, 0.5 cm^2 pellet, not normalized for surface area

## CCOC(=O)Nc1ccc(NCc2ccc(F)cc2)nc1N [flupirtine maleate]
[1]
  solubility in water: insoluble in water
[2]; [4]
  intrinsic dissolution rate: 0.088 [μg/mL]/min
[2]; water, 37° C., UV absorbance at 343 nm
  aqueous solubility as indicated by low absorbance values in the intrinsic dissolution experiment: poor aqueous solubility

## CCOC(=O)Nc1ccc(NCc2ccc(F)cc2)nc1N [flupirtine, 2-amino-3-carbethoxyamino-6-(p-fluorobenzylamino)pyridine]
[3]
  time to maximum plasma concentration (tmax): 2 h

## CCOC(=O)Nc1ccc(NCc2ccc(F)cc2)nc1N.Cl.O=C(O)C=CC(=O)O
[2]; sink conditions in water at 37° C.
  intrinsic dissolution rate: ~0.21 µg/mL/min
[2]; [4]
  intrinsic dissolution rate: 0.21 [μg/mL]/min
